Reference: patent US20210255193A1, “LYSINE REACTIVE PROBES AND USES THEREOF” (The Scripps Research Institute, priority 2017, published 2021)
Entries after “also recorded” stand apart in the source; their conditions may differ.

Columns and labels:
[1] = target: T1, SIN3A Paired amphipathic helix protein Sin3a (Homo sapiens, UniProt Q96ST3); assay: competitive isoTOP-ABPP; type: binding; conditions: for R value (DMSO/fragment) for probe 1 labeling: Q96ST3_K155; for R value (DMSO/fragment) for probe 1 labeling / isoTOP-ABPP reactivity ratio at lysine Q96ST3_K155: 50 uM, 231 sol, in vitro
T1 construct: isoTOP-ABPP experiments performed in cell lysates (in vitro); endogenous in cells; host or cells: soluble proteome of human cancer cell lines (MDA-MB-231; Ramos and Jurkat also prepared)
T1 sequence (Q96ST3 1-1273): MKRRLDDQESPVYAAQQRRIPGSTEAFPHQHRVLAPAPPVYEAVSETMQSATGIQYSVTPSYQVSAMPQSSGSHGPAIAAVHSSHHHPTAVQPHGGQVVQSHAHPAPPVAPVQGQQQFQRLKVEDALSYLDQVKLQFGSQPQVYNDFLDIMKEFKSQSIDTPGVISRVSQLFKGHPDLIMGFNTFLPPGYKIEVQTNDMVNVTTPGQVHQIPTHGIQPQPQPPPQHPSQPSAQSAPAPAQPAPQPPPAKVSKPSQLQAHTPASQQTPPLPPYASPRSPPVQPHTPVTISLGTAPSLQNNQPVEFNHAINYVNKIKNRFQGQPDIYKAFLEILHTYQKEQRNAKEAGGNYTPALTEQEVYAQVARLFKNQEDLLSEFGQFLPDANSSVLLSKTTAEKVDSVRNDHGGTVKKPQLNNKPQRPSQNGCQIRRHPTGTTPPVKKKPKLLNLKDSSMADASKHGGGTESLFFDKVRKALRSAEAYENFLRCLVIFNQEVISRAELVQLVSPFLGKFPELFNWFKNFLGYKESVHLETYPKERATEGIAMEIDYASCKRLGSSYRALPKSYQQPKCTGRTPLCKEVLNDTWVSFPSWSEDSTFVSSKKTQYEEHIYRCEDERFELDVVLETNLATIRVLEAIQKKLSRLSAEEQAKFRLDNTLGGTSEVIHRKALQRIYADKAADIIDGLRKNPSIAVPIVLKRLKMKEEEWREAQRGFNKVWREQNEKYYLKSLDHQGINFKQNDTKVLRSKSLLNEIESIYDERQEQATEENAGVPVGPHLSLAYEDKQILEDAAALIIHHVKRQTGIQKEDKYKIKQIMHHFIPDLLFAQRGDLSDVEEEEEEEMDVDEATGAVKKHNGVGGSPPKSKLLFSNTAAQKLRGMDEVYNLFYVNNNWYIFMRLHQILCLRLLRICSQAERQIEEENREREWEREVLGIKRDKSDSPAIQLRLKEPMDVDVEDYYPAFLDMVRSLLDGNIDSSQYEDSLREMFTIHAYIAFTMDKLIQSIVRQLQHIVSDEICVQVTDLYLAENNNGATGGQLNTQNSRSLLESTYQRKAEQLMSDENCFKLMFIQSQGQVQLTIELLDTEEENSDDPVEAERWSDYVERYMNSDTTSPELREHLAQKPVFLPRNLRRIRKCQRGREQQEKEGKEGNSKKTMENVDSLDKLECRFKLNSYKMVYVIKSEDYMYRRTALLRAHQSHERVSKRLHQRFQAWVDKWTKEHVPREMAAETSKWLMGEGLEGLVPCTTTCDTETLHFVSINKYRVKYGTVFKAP
Method in brief: (§1)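 Lysine engagement is reported as R, the MS1 peak-area ratio of heavy-tagged DMSO to light-tagged compound samples. Final fragment concentrations were 50 μM for activated esters and 100 μM for guanidinylating agents; STP-alkyne probe 0.1 mM, 1 h.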

OLA1 Obg-like ATPase 1 = target: T2, OLA1 Obg-like ATPase 1 (Homo sapiens, UniProt Q9NTK5); assay: competitive isoTOP-ABPP; type: binding; conditions: for R value (DMSO/fragment) for probe 1 labeling: Q9NTK5_K248; for R value (DMSO/fragment) for probe 1 labeling / isoTOP-ABPP reactivity ratio at lysine Q9NTK5_K248: 50 uM, 231 sol, in vitro
T2 construct: endogenous in cells; host or cells: MDA-MB-231 (soluble fraction of lysate)
Method in brief: as §1

R value (DMSO/fragment) for probe 1 labeling [1] | R value (DMSO/fragment) for probe 1 labeling (OLA1 Obg-like ATPase 1) | isoTOP-ABPP reactivity ratio at lysine Q96ST3_K155 [1] | isoTOP-ABPP reactivity ratio at lysine Q9NTK5_K248 (OLA1 Obg-like ATPase 1) | Compound | other results
1.6 | 1.0 |  |  | O=C(CCc1cn(-c2ccccc2)nc1-c1ccccc1)Oc1c(F)c(F)c(F)c(F)c1F [fragment 19, Pentafluorophenyl 3-(1,3-diphenyl-1H-pyrazol-4-yl)propanoate] | 
1.2 | 0.9 |  |  | O=C(Oc1c(F)c(F)c(F)c(F)c1F)C(c1ccccc1)c1ccccc1 [fragment 20, Pentafluorophenyl 2,2-diphenylacetate] | 
20.0 | 1.0 |  |  | O=C(Oc1c(F)c(F)c(F)c(F)c1F)c1cc(C(F)(F)F)cc(C(F)(F)F)c1 [fragment 21, Pentafluorophenyl 3,5-bis(trifluoromethyl)benzoate] | engagement of K155, competition of probe 1 labeling ([1]; SIN3A K155, 21 50 μM): engages K155 in SIN3A; also recorded: fully competes probe 1 labeling of K155
3.9 | 1.0 |  |  | Cn1cc(CC(=O)Oc2c(F)c(F)c(F)c(F)c2F)c2ccccc21 [fragment 22, Pentafluorophenyl 2-(1-methyl-1H-indol-3-yl)acetate] | 
4.1 | 1.0 |  |  | COc1cc(CCC(=O)Oc2c(F)c(F)c(F)c(F)c2F)cc(OC)c1OC [fragment 23, Pentafluorophenyl 3-(3,4,5-trimethoxyphenyl)propanoate] | 
 |  | 1.1 | 1.1 | O=C(Oc1c(F)c(F)c(F)c(F)c1F)C1CCN(C(=O)OCc2ccccc2)CC1 [fragment 24, 1-Benzyl 4-(pentafluorophenyl) piperidine-1,4-dicarboxylate] | 
 |  | 11.1 | 1.0 | O=C(Oc1c(F)c(F)c(F)c(F)c1F)c1ccc2ccccc2n1 [fragment 25, Pentafluorophenyl quinoline-2-carboxylate] | 
 |  | 1.7 | 1.0 | O=C(CCc1coc2cc(F)ccc2c1=O)Oc1c(F)c(F)c(F)c(F)c1F [fragment 26, Pentafluorophenyl 3-(7-fluoro-4-oxo-4H-chromen-3-yl)propanoate] | 
 |  | 11.7 | 1.1 | O=C(CN1C(=O)c2ccccc2C1=O)Oc1c(F)c(F)c(F)c(F)c1F [fragment 27, Pentafluorophenyl 2-(1,3-dioxoisoindolin-2-yl)acetate] | 
 |  | 4.9 | 1.0 | CCn1cc(C(=O)Oc2c(F)c(F)c(F)c(F)c2F)c(=O)c2ccc(C)nc21 [fragment 28, Pentafluorophenyl 1-ethyl-7-methyl-4-oxo-1,4-dihydro-1,8-naphthyridine-3-carboxylate] | 
 |  |  |  | COC(=O)NC(=NC(=O)OCC1c2ccccc2-c2ccccc21)n1cccn1 [fragment 49, N-Methoxycarbonyl-N′-9-fluorenylmethoxycarbonyl-pyrazole-1-carboxamidine] | isoTOP-ABPP ratio, lysine Q9NTK5_K248 (OLA1 Obg-like ATPase 1; 100 uM_231_sol_in vitro): 7.0

Compound | R value (DMSO/fragment) for probe 1 labeling [1] | R value (DMSO/fragment) for probe 1 labeling (OLA1 Obg-like ATPase 1) | isoTOP-ABPP reactivity ratio at lysine Q96ST3_K155 [1] | isoTOP-ABPP reactivity ratio at lysine Q9NTK5_K248 (OLA1 Obg-like ATPase 1) | other results
O=C(CCc1cn(-c2ccccc2)nc1-c1ccccc1)Oc1ccc([N+](=O)[O-])cc1[N+](=O)[O-] [fragment 29, 2,4-Dinitrophenyl 3-(1,3-diphenyl-1H-pyrazol-4-yl)propanoate] |  |  | 1.5 | 0.9 | 
O=C(Oc1ccc([N+](=O)[O-])cc1[N+](=O)[O-])C(c1ccccc1)c1ccccc1 [fragment 30, 2,4-Dinitrophenyl 2,2-diphenylacetate] |  |  | 20.0 | 1.0 | 
O=C(Oc1ccc([N+](=O)[O-])cc1[N+](=O)[O-])c1cc(C(F)(F)F)cc(C(F)(F)F)c1 [fragment 31, 2,4-Dinitrophenyl 3,5-bis(trifluoromethyl)benzoate] |  |  | 18.6 | 1.0 | 
